The values below come from ChEMBL document CHEMBL5647696, “Are all cyclin-dependent kinases 4/6 inhibitors created equal?” (NPJ Breast Cancer, 2019).

Data set [1] is described as follows: Volume of distribution in human. The format is ADME.
Data set [2] is described as follows: Drug excretion in human feces. The class given is ADME, tissue-based. The conditions noted are these: faeces, read-out: Drug excretion.
Data set [3] can be described thus: Drug excretion in human urine. The class given is ADME, tissue-based. The conditions noted are these: read-out: Drug excretion.
The nature of data set [4]: Bioavailability in human. The class given is ADME, organism-based. The conditions noted are these: in vivo.
Data set [5] can be described thus: Time to reach peak level in human. The format is ADME.
Data set [6] is described as follows: Protein binding in human plasma. The class given is ADME, cell-free. The conditions noted are these: read-out: PPB (converted).
The nature of data set [7]: Elimination half life in human. The class given is ADME. The conditions noted are these: read-out: beta t1/2 (converted).

Each structure is given as a SMILES string.

What is called Vd is a proportionality between amount in the body and measured concentration, not a real space. A high value points to wide distribution into tissue. What is called bioavailability is dose-corrected exposure relative to a reference, in per cent. Usually Tmax stands for the time at which the peak concentration occurs.

`CCN1CCN(Cc2ccc(Nc3ncc(F)c(-c4cc(F)c5nc(C)n(C(C)C)c5c4)n3)nc2)CC1` [ABEMACICLIB]: in data set [1], the volume of distribution (Vd) was found to be 690 L. Besides, the dose excreted was 81% in data set [2] and 3% in data set [3]. In data set [4], this compound came in with a bioavailability of 45%. Besides, the Tmax in data set [5] came out at 8 h. Further, the fraction unbound in data set [6] was 0.07.
For the compound `CC(=O)c1c(C)c2cnc(Nc3ccc(N4CCNCC4)cn3)nc2n(C2CCCC2)c1=O` [PALBOCICLIB], the Vd in data set [1] was 2580 L. Also, the Tmax in data set [5] came out at 6 h. The half-life in data set [7] is 29 h.
For `CN(C)C(=O)c1cc2cnc(Nc3ccc(N4CCNCC4)cn3)nc2n1C1CCCC1` [RIBOCICLIB], in data set [1], the Vd worked out at 1090 L. Also, the dose excreted in data set [2] was 69%; in data set [3] it was 23%. In data set [5], the Tmax worked out at 1 h. In addition, in data set [7], the half-life was 30 h.
